Reference: US20070254332A1, “Method for Readily Detecting Class C Beta-Lactamase-Producing Bacteria” (JAPAN HEALTH SCIENCES FOUNDATION, priority 2003, published 2007)
≈ marks a conversion by molar mass, not a printed value.

Key:
Assay type in all cases: cell-based
[1] = system: Klebsiella pneumoniae HKY402 (SHV-12: Class A); assay: MIC by trace quantity liquid dilution method
[2] = system: Klebsiella pneumoniae KP1 15 (IMP-1: Class B); assay: MIC by trace quantity liquid dilution method
C. freundii HKY543 = assay: MIC by trace quantity liquid dilution method; settings: Citrobacter freundii
Experimental: (§1) Following overnight culturing, the MIC was measured.

E. cloacae HKY226 [3] = assay: MIC by trace quantity liquid dilution method; settings: Enterobacter cloacae
Experimental: as §1

E. coli NS12 CMY-2 = assay: MIC by trace quantity liquid dilution method; settings: Escherichia coli, NS12CMY2
Experimental: as §1

[4] = system: K. pneumoniae NCB02189 DHA-1 + CTX-M9; assay: MIC by trace quantity liquid dilution method; settings: Klebsiella pneumoniae
Experimental: as §1

[5] = system: Klebsiella pneumoniae NU2936 (MOX-1: Class C); assay: MIC by trace quantity liquid dilution method
Experimental: as §1

P. aeruginosa NCB03-192 = assay: MIC by trace quantity liquid dilution method; settings: Pseudomonas aeruginosa, NCB03192
Experimental: as §1

S. marcescens S94 = assay: MIC by trace quantity liquid dilution method; settings: Serratia marcescens
Experimental: as §1

E. cloacae HKY226 [6] = assay: Disk test, CAZ disk versus CAZ + APB disk (second aspect); settings: overnight culturing
Experimental: (§2) In the same manner as in Embodiment 1, the test bacterium was inoculated onto a Mueller-Hinton agar medium, and KB disks (6 mm in diameter) of CAZ were positioned at least 3 cm apart center-on-center. […] After overnight culturing, the diameters of the growth inhibitory zones around the two CAZ disks were measured.

C. freundi HKY543 = assay: as above; settings: overnight culturing
Experimental: as §2

[7] = system: K. pneumoniae SHV-12 Class A; assay: as above; settings: overnight culturing
Experimental: as §2

`CC(C)(O/N=C(\C(=O)N[C@@H]1C(=O)N2C(C(=O)[O-])=C(C[n+]3ccccc3)CS[C@H]12)c1csc(N)n1)C(=O)O` [CAZ, ceftazidime] was tested, and the MIC [1] was over 512 µg/mL, the MIC [2] was 256 µg/mL (≈ 468 µM) and the MIC (C. freundii HKY543) was 64 µg/mL (≈ 117 µM). For the same molecule, the MIC (E. cloacae HKY226 [3]) was 256 µg/mL (≈ 468 µM), the MIC (E. coli NS12 CMY-2) was 64 µg/mL (≈ 117 µM) and the MIC [4] was 64 µg/mL (≈ 117 µM). It also gave an MIC [5] of 64 µg/mL (≈ 117 µM), an MIC (P. aeruginosa NCB03-192) of 16 µg/mL (≈ 29.3 µM) and an MIC (S. marcescens S94) of 64 µg/mL (≈ 117 µM). The “Inhibitory zone around the disk” value (E. cloacae HKY226 [6]) was “No inhibitory zone was observed around”, the “Inhibitory zone around the disk” value (C. freundi HKY543) was “A small inhibitory zone was observed” and the “Inhibitory zone around the disk” value [7] was “No inhibitory zones observed around”.
